Assay results as given in patent US20110021640A1 (priority 2009, published 2011).

Target: T1, calf spleen adenosine deaminase (Bos taurus, UniProt P56658)
T1 construct: The calf spleen adenosine deaminase (Specific Activity of 178 Units/mg protein) is purchased from Sigma Chemical Company; purchased Sigma Chemical Company, St Louis, Mo; host or cells: calf spleen (tissue-derived enzyme)
T1 sequence (P56658 1-363): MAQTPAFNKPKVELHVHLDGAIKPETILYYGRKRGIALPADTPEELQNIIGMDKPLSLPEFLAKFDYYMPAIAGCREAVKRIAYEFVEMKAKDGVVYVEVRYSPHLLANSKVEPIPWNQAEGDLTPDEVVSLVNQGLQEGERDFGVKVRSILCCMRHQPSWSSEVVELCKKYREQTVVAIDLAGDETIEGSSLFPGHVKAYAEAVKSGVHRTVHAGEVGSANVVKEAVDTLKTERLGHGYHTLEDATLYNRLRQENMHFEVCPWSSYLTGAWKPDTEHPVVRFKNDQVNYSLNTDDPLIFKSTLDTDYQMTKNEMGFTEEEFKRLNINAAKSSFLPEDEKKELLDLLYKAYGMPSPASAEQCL
Assay: Adenosine Deaminase (ADA) Assay, spectrophotometric at 265 nm
Type: biochemical
Conditions: Tris-HCl buffer 50 mM, pH 7.5, 25° C., adenosine substrate; dose-response (FIGS. 1 and 2); read-out: IC50, amount of the product per ml of the reaction mixture producing the enzyme inhibition by 50% (converted)
Experimental: The enzyme catalyzes the following reaction:
Adenosine+H2O→Inosine+NH3
The calf spleen adenosine deaminase (Specific Activity of 178 Units/mg protein) is purchased from Sigma Chemical Company, St Louis, Mo. The enzyme assay is carried out spectrophotometrically at 265 nm. The reaction mixture (in a 1-ml cuvette; diameter=1.0 cm) contains 0.9 ml of buffer (Tris-HCL buffer, 50 mM, pH 7.5), 25 μl of adenosine (2 mM), plus the enzyme, water and the extract to make 1 ml. The enzyme is added to start the reaction, and a decrease in absorbency at 265 nm is followed at 25° C. One unit of ADA activity is the amount of the enzyme that catalyzes 1 μmole of adenosine/min/ml of the reaction mixture.
The IC50 values have been determined by examining the dose-response effects of both products. The IC50 values represent the amount of the product per ml of the reaction mixture, producing the enzyme inhibition by 50%. In the enzyme assay, first a background reading is recorded on the chart for 1-2 min, followed by the addition of an appropriate amount of the enzyme to start the reaction, which is monitored spectrophotometrically.

In the case of `Oc1ccc(/C=C/c2cc(O)cc(O)c2)cc1` [resveratrol, 3,5,4′-trihydroxystilbene], the IC50 is reported as 50.8 µM.
